Values after ≈ are worked out from the molar mass of the structure shown. Active and inactive are the calls of the source. No cut-off for these calls is given here.
Experiments:
[1] = Elimination half life in Sprague-Dawley rat at 1 mg/kg, iv measured upto 120 mins by LC-MS analysis; type: ADME, organism-based; conditions: in vivo, read-out: beta t1/2
Bacillus subtilis = assay: Antibacterial activity against Bacillus subtilis ATCC 23857 incubated for 18 hrs by broth microdilution method; type: functional
Staphylococcus aureus [2] = assay: Bactericidal activity against Staphylococcus aureus ATCC 25923 incubated for 18 hrs by broth microdilution method; type: functional
Pseudomonas aeruginosa [3] = assay: Bactericidal activity against Pseudomonas aeruginosa ATCC 27853 incubated for 18 hrs by broth microdilution method; type: functional
Erythrocyte = assay: Hemolytic activity in mouse erythrocytes assessed as concentration required to cause 10% hemolysis incubated for 1 hr; type: toxicity, cell-based
[4] = Self-assembly property of compound in PBS assessed as beta-sheet nanofibers formation incubated for 1 hr by Thioflavin T based fluorescence spectrophotometer analysis; type: physicochemical; conditions: buffer, dose 0.5-1.5 µM
[5] = Retention time of the compound; type: physicochemical
Staphylococcus aureus [6] = assay: Antibacterial activity against Staphylococcus aureus at 2 times MIC preincubated for 1 hr with trypsin followed by enzyme inactivation and bacterial addition and measured after 18 hrs; type: functional; conditions: time 19 hrs
Pseudomonas aeruginosa [7] = assay: Antibacterial activity against Pseudomonas aeruginosa incubated for 18 hrs in presence of NH4Cl by broth microdilution method; type: functional, organism-based
Pseudomonas aeruginosa [8] = assay: Antibacterial activity against Pseudomonas aeruginosa incubated for 18 hrs in presence of CaCl2 by broth microdilution method; type: functional, organism-based
Staphylococcus aureus [9] = assay: Antibacterial activity against Staphylococcus aureus incubated for 18 hrs in presence of ZnCl2 by broth microdilution method; type: functional, organism-based
Staphylococcus aureus [10] = assay: Antibacterial activity against Staphylococcus aureus incubated for 18 hrs in presence of CaCl2 by broth microdilution method; type: functional, organism-based
Cell membrane [11] = assay: Induction of outer membrane permeabilization in Escherichia coli within 1 min by NPN-dye based assay; type: cell membranes
Cell membrane [12] = assay: Induction of cytoplasmic membrane depolarization in Staphylococcus aureus at 2 to 4 times MIC by DiSC3-5 dye based fluorescence method; type: cell membranes
Staphylococcus aureus [13] = assay: Induction of morphological change in Staphylococcus aureus assessed as bacterial lysis at 2 times MIC incubated for 30 mins by SEM analysis; type: functional, organism-based
Cell membrane [14] = assay: Induction of cell membrane disruption in Staphylococcus aureus assessed as PI uptake incubated for 2 hrs by PI staining based confocal laser scanning microscopy; type: cell membranes
Cell membrane [15] = assay: Induction of cell membrane disruption in Escherichia coli assessed as PI uptake at 2 times MIC incubated for 2 hrs by PI staining based flow cytometry analysis (reference value: 11.9%); type: cell membranes
Pseudomonas aeruginosa [16] = assay: Drug resistance against Pseudomonas aeruginosa assessed as fold increase in MIC after 40 consecutive days of passages by sequential passaging method; type: functional; conditions: time 18 hrs
Staphylococcus aureus [17] = assay: Additive antibacterial activity against methicillin resistant Staphylococcus aureus assessed as fractional inhibitory concentration index incubated for 18 hrs in presence of ciprofloxacin by checkerboard assay; type: functional
Staphylococcus aureus [18] = assay: Additive antibacterial activity against Staphylococcus aureus assessed as fractional inhibitory concentration index incubated for 18 hrs in presence of ciprofloxacin by checkerboard assay; type: functional
Pseudomonas aeruginosa [19] = assay: Antibacterial activity against Pseudomonas aeruginosa assessed as fractional inhibitory concentration index incubated for 18 hrs in presence of cefotaxime by checkerboard assay; type: functional
Staphylococcus aureus [20] = assay: Additive antibacterial activity against Staphylococcus aureus 125 assessed as fractional inhibitory concentration index incubated for 18 hrs in presence of cefotaxime by checkerboard assay; type: functional
Staphylococcus aureus [21] = assay: Synergistic antibacterial activity against methicillin resistant Staphylococcus aureus 75 assessed as fractional inhibitory concentration index incubated for 18 hrs in presence of cefotaxime by checkerboard assay; type: functional
Staphylococcus aureus [22] = assay: Additive antibacterial activity against Staphylococcus aureus 125 assessed as fractional inhibitory concentration index incubated for 18 hrs in presence of ciprofloxacin by checkerboard assay; type: functional
Klebsiella pneumoniae [23] = assay: Synergistic antibacterial activity against Klebsiella pneumoniae assessed as fractional inhibitory concentration index incubated for 18 hrs in presence of rifampin by checkerboard assay; type: functional
Staphylococcus aureus [24] = assay: Synergistic antibacterial activity against methicillin resistant Staphylococcus aureus assessed as fractional inhibitory concentration index incubated for 18 hrs in presence of rifampin by checkerboard assay; type: functional
Staphylococcus aureus [25] = assay: Synergistic antibacterial activity against kanamycin resistant Staphylococcus aureus assessed as fractional inhibitory concentration index incubated for 18 hrs in presence of rifampin by checkerboard assay; type: functional
Escherichia coli [26] = assay: Additive antibacterial activity against rifampicin resistant Escherichia coli assessed as fractional inhibitory concentration index incubated for 18 hrs in presence of rifampin by checkerboard assay; type: functional
Klebsiella pneumoniae [27] = assay: Additive antibacterial activity against Klebsiella pneumoniae assessed as fractional inhibitory concentration index incubated for 18 hrs in presence of kanamycin by checkerboard assay; type: functional
Staphylococcus aureus [28] = assay: Additive antibacterial activity against Staphylococcus aureus 125 assessed as fractional inhibitory concentration index incubated for 18 hrs in presence of kanamycin by checkerboard assay; type: functional
Staphylococcus aureus [29] = assay: Additive antibacterial activity against methicillin resistant Staphylococcus aureus 75 assessed as fractional inhibitory concentration index incubated for 18 hrs in presence of streptomycin by checkerboard assay; type: functional
Staphylococcus aureus [30] = assay: Additive antibacterial activity against Staphylococcus aureus 794 assessed as fractional inhibitory concentration index incubated for 18 hrs in presence of streptomycin by checkerboard assay; type: functional
Staphylococcus aureus [31] = assay: Synergistic antibacterial activity against methicillin resistant Staphylococcus aureus 113 assessed as fractional inhibitory concentration index incubated for 18 hrs in presence of bacitracin by checkerboard assay; type: functional
Staphylococcus aureus [32] = assay: Synergistic antibacterial activity against Staphylococcus aureus 794 assessed as fractional inhibitory concentration index incubated for 18 hrs in presence of bacitracin by checkerboard assay; type: functional
Escherichia coli [33] = assay: […] antibacterial activity against Escherichia coli assessed as fractional inhibitory concentration index incubated for 18 hrs in presence of polymyxin B by checkerboard assay; type: functional
[34] = Acute toxicity in mouse assessed as cell swelling at 230.5 mg/kg, ip by H and E staining based assay; type: organism-based; conditions: in vivo
Staphylococcus aureus [35] = assay: Antibacterial activity against Staphylococcus aureus 794 infected in BALB/c mouse skin wound infection model assessed as reduction in TNFalpha level at 1 mg/ml, ip pre-infected with bacteria for 24 hrs followed by compound addition and measured after 13 days post infection; type: functional, organism-based; conditions: time 12.0 day
Staphylococcus aureus [36] = assay: Antibacterial activity against Staphylococcus aureus 794 infected in BALB/c mouse skin wound infection model assessed as reduction in TNFalpha level at 1 mg/ml, ip pre-infected with bacteria for 24 hrs followed by compound addition and measured after 13 days post infection in presence of vancomycin; type: functional, organism-based; conditions: time 12.0 day
Staphylococcus aureus [37] = assay: Antibacterial activity against Staphylococcus aureus 794 infected in BALB/c mouse skin wound infection model assessed as wound healing by measuring detached scab at 1 mg/ml, ip pre-infected with bacteria for 24 hrs followed by compound addition and measured on day 7; type: functional, organism-based; conditions: time 7.0 day
Staphylococcus aureus [38] = assay: Antibacterial activity against Staphylococcus aureus 794 infected in BALB/c mouse skin wound infection model assessed as reduction in wound area at 1 mg/ml, ip pre-infected with bacteria for 24 hrs followed by compound addition and measured on day 9 to 13; type: functional, organism-based; conditions: time 9-13 day
[39] = Toxicity in BALB/c mouse infected with Staphylococcus aureus 794 assessed as hyperkeratosis at 1 mg/ml, ip pre-infected with bacteria for 24 hrs followed by compound addition and measured after 13 days by H and E staining based histopathological analysis; type: organism-based; conditions: in vivo, 312 h, time 13 day
Staphylococcus aureus [40] = assay: Antibacterial activity against kanamycin resistant Staphylococcus aureus assessed as fractional inhibitory concentration index incubated for 18 hrs in presence of kanamycin by checkerboard assay; type: functional

NCCCC[C@@H](NC(=O)[C@H](N)Cc1c[nH]c2ccccc12)C(=O)N[C@H](Cc1c[nH]c2ccccc12)C(=O)N[C@H](CCCCN)C(=O)N[C@H](Cc1c[nH]c2ccccc12)C(=O)N[C@@H](CC(N)=O)C(=O)NCC(=O)N[C@H](Cc1c[nH]c2ccccc12)C(=O)N[C@H](CCCCN)C(=O)N[C@H](Cc1c[nH]c2ccccc12)C(=O)N[C@H](CCCCN)C(=O)N[C@H](Cc1c[nH]c2ccccc12)C(N)=O
half-life [1]: 11.4 min
MIC (Bacillus subtilis): 2 µM (≈ 3.64 µg/mL)
MBC (Staphylococcus aureus [2]): 8 µM (≈ 14.5 µg/mL)
MBC (Pseudomonas aeruginosa [3]): 32 µM (≈ 58.2 µg/mL)
MHC (Erythrocyte): > 512 µM
Activity [4]: Dose-Dependent Effect
Retention_time [5]: 14.321 min
Activity (Staphylococcus aureus [6]): 100%
Activity (Pseudomonas aeruginosa [7]): Active
Activity (Pseudomonas aeruginosa [8]): Active
Activity (Staphylococcus aureus [9]): Active
Activity (Staphylococcus aureus [10]): Active
Activity (Cell membrane [11]): Dose-Dependent Effect
Activity (Cell membrane [12]): Active
Activity (Staphylococcus aureus [13]): Active
Activity (Cell membrane [14]): Dose-Dependent Effect
Activity (Cell membrane [15]): 86.2%
fold change (FC) (Pseudomonas aeruginosa [16]): 4
fractional inhibitory concentration index (FICI) (Staphylococcus aureus [17]): 0.563
fractional inhibitory concentration index (FICI) (Staphylococcus aureus [18]): 1
fractional inhibitory concentration index (FICI) (Pseudomonas aeruginosa [19]): 1.063
fractional inhibitory concentration index (FICI) (Staphylococcus aureus [20]): 0.75
fractional inhibitory concentration index (FICI) (Staphylococcus aureus [21]): 0.375
fractional inhibitory concentration index (FICI) (Staphylococcus aureus [22]): 1
fractional inhibitory concentration index (FICI) (Klebsiella pneumoniae [23]): 0.5
fractional inhibitory concentration index (FICI) (Staphylococcus aureus [24]): 0.313
fractional inhibitory concentration index (FICI) (Staphylococcus aureus [25]): 0.313
fractional inhibitory concentration index (FICI) (Escherichia coli [26]): 0.563
fractional inhibitory concentration index (FICI) (Klebsiella pneumoniae [27]): 0.563
fractional inhibitory concentration index (FICI) (Staphylococcus aureus [28]): 0.563
fractional inhibitory concentration index (FICI) (Staphylococcus aureus [29]): 0.75
fractional inhibitory concentration index (FICI) (Staphylococcus aureus [30]): 0.625
fractional inhibitory concentration index (FICI) (Staphylococcus aureus [31]): 0.5
fractional inhibitory concentration index (FICI) (Staphylococcus aureus [32]): 0.313
fractional inhibitory concentration index (FICI) (Escherichia coli [33]): 0.375
Activity [34]: Toxic
Activity (Staphylococcus aureus [35]): Active
Activity (Staphylococcus aureus [36]): Active
Activity (Staphylococcus aureus [37]): Active
Activity (Staphylococcus aureus [38]): Active
Activity [39]: Non-Toxic
fractional inhibitory concentration index (FICI) (Staphylococcus aureus [40]): 0.563

— ChEMBL document CHEMBL5543109, “Novel β-Hairpin Antimicrobial Peptide Containing the β-Turn Sequence of -NG- and the Tryptophan Zippers Facilitate Self-Assembly into Nanofibers, Exhibiting Excellent Antimicrobial Performance” (J Med Chem, 2024)
